Assay results taken from patent publication US20230068020A1, “MACROLIDE COMPOUND AND ITS USE OF TREATMENT CHRONIC RESPIRATORY DISEASE” (priority 2020, published 2023).

Key:
[1] = test system: smoke induced COPD mice model; test: Smoke induced COPD mice model; type: in vivo, C57BL/6 J mice
Protocol: The commercial non-filtered cigarettes containing 11 mg tar and 0.9 mg nicotine per cigarette were used in this study. Eight-week-old male C57BL/6 J mice (purchased from Shanghai Xipuer Yibikai animal Co) were divided into four groups as follows: Group 1 was the control group(NS6m), Group 2 was the animal model CS group(CS6m), Groups 3 was CS+Compound A 100 mpk group(LY100), Group 4 was CS+erythromycin group(EM100). Mice were placed in a Plexiglass chamber covered by a disposable filter. The animals received CS of 5 cigarettes/time, carried out twice per day and 5 days a week for 24 weeks. Mainstream CS was generated by an exposure system in which combustion of the cigarette was drawn into the mouse chambers via a peristaltic pump. In group 3 and 4, mice were orally administrated with Compound A (100 mg/kg) twice per day from the 12th week to 24th week. One week after the last CS exposure, animals were sacrificed by intraperitoneal injection of 10% chloral hydrate for the plasma, bronchoalveolar lavage fluid (BALF) and lung tissues collection.
The lung tissues were collected and inflated with 4% paraformaldehyde at a pressure of 25 cmH2O, fixed for 24 h in formalin, embedded with paraffin, sectioned in the sagittal plane, and stained with hematoxylin and eosin (H & E). Alveolus enlargement was quantified by measurement of the mean chord length of alveoli with Analysis software Image J (see FIGS. 5 & 6).
For the bronchoalveolar lavage fluid collection, lungs were lavaged with 1 ml of saline, and the resulting BALF was centrifuged at 3000 g for 15 minutes. Cells were washed three times and then analyzed on a ThermoFisher Countess II cytometer.

[2] = test system: Streptococcus pneumoniae ATCC 49619; test: Antibacterial activity, agar dilution MIC; type: cell-based; settings: ATCC49619, 20-24 hrs incubation, read-out: minimum inhibitory concentration MIC
How it was run: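 CLSI agar dilution. Overnight growth 35° C/5% CO2, MHIIA ± 5% sheep blood (S. pneumoniae). Inoculum 10^8 CFU.mL^−1 via OD600nm. Cpds 2-fold serial in DMSO, stock 20 mg/ml. MIC at 20-24 hrs, 35° C, 5% CO2.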

With `CC[C@H]1OC(=O)[C@H](C)[C@@H](O[C@H]2C[C@@](C)(OC)[C@@H](O)[C@H](C)O2)[C@H](C)[C@@H](O[C@@H]2O[C@H](C)C[C@H](N(C)C)[C@H]2O)[C@](C)(O)C[C@@H](C)C(=O)[C@H](C)[C@@H](O)[C@]1(C)O` [Erythromycin, reference compound] the “inflammatory cell infiltration and enlargement of alveolus (lung histology)” value ([1]; 100 mg/kg orally twice per day, 12th to 24th week, vs CS group) was “significantly attenuated”, the “total cell count and number of macrophages and neutrophils in BALF” value ([1]; 100 mg/kg orally twice per day, compared to the smoking group) was “significantly lower” and the “airway resistance and total lung capacity” value ([1]; oral administration of 100 mg/kg, 24 weeks smoke exposure) was “reduced two parameters and partially recovered lung function”. For the same compound, the MIC [2] was less than 0.125 µg/mL.
